Data as given in patent publication US20120076899A1, “SHELF STABLE MONATIN SWEETENED BEVERAGE” (Cargill, Incorporated, priority 2009, published 2012).

Test: Total indole concentrations following sunlight exposure
Format: physicochemical
Description: Synthetic R,R-monatin containing approximately 95.4% R,R-monatin monopotassium salt (dry basis) was obtained from CSIR (Modderfontein, South Africa). About 39 mg/L of this monatin was placed in a buffered solution at a pH of about 2.8-3.0 comprising 9 mM citric acid-trisodium citrate in high purity water and preserved with about 150 mg/L sodium benzoate. To some samples 200 ppm SANMELIN™ AO-3000 enzymatically modified isoquercitrin (EMIQ) (San-Ei Gen F.F.I.—Osaka, Japan) was added. Dissolved O2 levels were either increased by bubbling compressed air or reduced by bubbling N2 (99.9% purity) through these samples until the target O2 concentrations were achieved. Dissolved O2 levels were determined at 20° C. using a FOXY fluorescence quenching O2 analyzer from Ocean Optics (Dunedin, Fla.). Samples were stored in clear, glass ampules (˜10 mL) after O2 adjustment and heat-sealed to create an air-tight enclosure. The samples were then either stored in the dark, or exposed to sunlight. The exposure to sunlight is a much harsher environment for photosensitive compounds than the fluorescent light box because sunlight is many times brighter (˜100,000 Lux vs. ˜2200 Lux) and produces higher-energy, UV radiation. In order to test samples under these alternate conditions, samples were stored outside and exposed to sunlight where temperatures varied from about 5 to about 30 degrees C. and light intensity ranged from 0 at night to about 100,000 Lux on a clear day. Duplicate samples were analyzed weekly for total indole concentrations via the following method.
Total indole (monatin and its intramolecular rearrangement products, monatin lactone and monatin lactam) concentrations were quantified by reversed phase HPLC at 40° C. using an Agilent Zorbax Eclipse C18 column with UV detection at 280 nm by PDA. The compounds were eluted by a gradient mobile phase consisting of (A) 1:1 methanol and acetonitrile (v:v) with 0.3% formic acid and 10 mM ammonium formate and (B) 0.3% formic acid in water with 10 mM ammonium formate. The integrated peak areas for the three (3) compounds were expressed in terms of monatin concentration (mg/L) based on a standard curve prepared for monatin. Thus, the extinction coefficient for monatin was applied to estimate concentrations of monatin lactone and monatin lactam since standards for these compounds were unavailable.

Total Indole Concentration (8.3 mg/L O2, 0 ppm EMIQ, Dark, 0 d): 38.5 mg/L
Total Indole Concentration (8.3 mg/L O2, 0 ppm EMIQ, Dark, 7 d): 39.4 mg/L
Total Indole Concentration (8.3 mg/L O2, 0 ppm EMIQ, Dark, 14 d): 38.0 mg/L
Total Indole Concentration (8.3 mg/L O2, 0 ppm EMIQ, Dark, 21 d): 36.9 mg/L
Total Indole Concentration (8.3 mg/L O2, 0 ppm EMIQ, Dark, 28 d): 39.1 mg/L
Total Indole Concentration (8.3 mg/L O2, 0 ppm EMIQ, Light (sunlight), 0 d): 38.5 mg/L
Total Indole Concentration (8.3 mg/L O2, 0 ppm EMIQ, Light (sunlight), 7 d): 0.0 mg/L
Total Indole Concentration (8.3 mg/L O2, 0 ppm EMIQ, Light (sunlight), 14 d): 0.0 mg/L
Total Indole Concentration (8.3 mg/L O2, 0 ppm EMIQ, Light (sunlight), 21 d): 0.0 mg/L
Total Indole Concentration (8.3 mg/L O2, 0 ppm EMIQ, Light (sunlight), 28 d): 0.0 mg/L
Total Indole Concentration (<0.5 mg/L O2, 0 ppm EMIQ, Light (sunlight), 0 d): 38.5 mg/L
Total Indole Concentration (<0.5 mg/L O2, 0 ppm EMIQ, Light (sunlight), 7 d): 39.7 mg/L
Total Indole Concentration (<0.5 mg/L O2, 0 ppm EMIQ, Light (sunlight), 14 d): 34.4 mg/L
Total Indole Concentration (<0.5 mg/L O2, 0 ppm EMIQ, Light (sunlight), 21 d): 32.0 mg/L
Total Indole Concentration (<0.5 mg/L O2, 0 ppm EMIQ, Light (sunlight), 28 d): 30.6 mg/L
Total Indole Concentration (<0.5 mg/L O2, 200 ppm EMIQ, Light (sunlight), 0 d): 38.5 mg/L
Total Indole Concentration (<0.5 mg/L O2, 200 ppm EMIQ, Light (sunlight), 7 d): 36.0 mg/L
Total Indole Concentration (<0.5 mg/L O2, 200 ppm EMIQ, Light (sunlight), 14 d): 38.4 mg/L
Total Indole Concentration (<0.5 mg/L O2, 200 ppm EMIQ, Light (sunlight), 21 d): 32.8 mg/L
Total Indole Concentration (<0.5 mg/L O2, 200 ppm EMIQ, Light (sunlight), 28 d): 36.7 mg/L
SMILES: NC(CC(O)(Cc1c[nH]c2ccccc12)C(=O)O)C(=O)O (centres unmarked) [R,R-monatin, 2-hydroxy-2-(indol-3-ylmethyl)-4-aminoglutaric acid]
